# Measurements from the supplement of paper PMC10307832.
# Key:
# Experiment in all cases: relative viability (nuclei count vs DMSO), 5 days (fraction); higher = more cells survive
# [1] = compound: C1=CC=C2C(=C1)N=C(S2)C(C#N)C3=NC(=NC=C3)NCCC4=CN=CC=C4 + COc1cc2c(Oc3ccc(NC(=O)C4(C(=O)Nc5ccc(F)cc5)CC4)cc3F)ccnc2cc1OCCCN1CCOCC1 [Foretinib] (partner 0.25 µM)
# Outline: (§1)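 A single step with final 0.05% Triton X-100, 1% formaldehyde and 1 ug/ml Hoechst fixed the cells and stained nuclei 5 days after treatment. Lung cancer cell lines in 1536-well plates had been treated by pin tool the day after seeding with one drug alone or a fixed anchor-drug dose plus five library-drug doses (not always all listed) in √10 steps, and nuclei were counted on 4× images. Relative viability is the ratio of nuclei in treated wells to nuclei in vehicle wells, taken as the median of duplicate plates.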
# Vandetanib + Luminespib = compound: COc1cc2/c(=N/c3ccc(Br)cc3F)nc[nH]c2cc1OCC1CCN(C)CC1 [Vandetanib] + CCNC(=O)c1noc(-c2cc(C(C)C)c(O)cc2O)c1-c1ccc(CN2CCOCC2)cc1 [Luminespib] (partner 0.01 µM)
# Outline: as §1
# Vandetanib + AZD7762 = compound: COc1cc2/c(=N/c3ccc(Br)cc3F)nc[nH]c2cc1OCC1CCN(C)CC1 [Vandetanib] + NC(=O)Nc1cc(-c2cccc(F)c2)sc1C(=O)N[C@H]1CCCNC1 [AZD7762] (partner 0.2 µM)
# Outline: as §1
# Vandetanib + Trametinib = compound: COc1cc2/c(=N/c3ccc(Br)cc3F)nc[nH]c2cc1OCC1CCN(C)CC1 [Vandetanib] + CC(=O)Nc1cccc(-n2c(=O)n(C3CC3)c(=O)c3c(Nc4ccc(I)cc4F)n(C)c(=O)c(C)c32)c1 [Trametinib] (partner 0.02 µM)
# Outline: as §1
Cell Line,relative viability ([1]; first compound 0.01581 µM),relative viability ([1]; first compound 0.05 µM),relative viability ([1]; first compound 0.1581 µM),relative viability ([1]; first compound 0.5 µM),relative viability ([1]; first compound 0.005 µM),relative viability (Vandetanib + Luminespib; first compound 0.02 µM),relative viability (Vandetanib + Luminespib; first compound 0.06325 µM),relative viability (Vandetanib + Luminespib; first compound 0.2 µM),relative viability (Vandetanib + Luminespib; first compound 0.6325 µM),relative viability (Vandetanib + Luminespib; first compound 2 µM),relative viability (Vandetanib + AZD7762; first compound 0.02 µM),relative viability (Vandetanib + AZD7762; first compound 0.06325 µM),relative viability (Vandetanib + AZD7762; first compound 0.6325 µM),relative viability (Vandetanib + AZD7762; first compound 2 µM),relative viability (Vandetanib + Trametinib; first compound 0.02 µM),relative viability (Vandetanib + Trametinib; first compound 0.06325 µM),relative viability (Vandetanib + Trametinib; first compound 0.2 µM),relative viability (Vandetanib + Trametinib; first compound 0.6325 µM),relative viability (Vandetanib + Trametinib; first compound 2 µM),relative viability (Vandetanib + AZD7762; first compound 0.2 µM)
A549,1.03,0.971,1.05,0.728,–,–,–,–,–,–,–,–,–,–,–,–,–,–,–,–
ABC-1,1.01,0.935,1.12,1,1.2,0.673,0.616,0.401,1.2,0.594,0.871,0.901,0.726,0.773,–,–,–,–,–,–
COR-L23,1.03,0.961,1.29,0.798,0.861,0.629,0.653,0.747,0.7,0.685,–,–,–,–,0.619,0.517,0.695,0.71,0.641,–
COR-L 105,1.12,0.963,1.26,0.878,0.802,0.643,0.694,0.275,0.854,0.604,–,–,–,–,0.42,0.405,0.427,0.383,0.416,–
Calu-6,0.873,0.817,0.884,0.822,0.875,–,–,–,–,–,–,–,–,–,–,–,–,–,–,–
EBC-1,0.103,0.0991,0.112,0.0984,0.123,–,–,–,–,–,–,–,–,–,–,–,–,–,–,–
HCC-44,–,–,–,–,–,1.01,0.988,1.13,1.2,1.01,0.982,1.04,1.03,1.04,1.1,1.04,1.06,1.15,1.06,1.11
HCC-78,0.526,0.523,0.559,0.504,0.473,–,–,–,–,–,0.591,0.669,0.645,0.609,0.73,0.814,0.684,0.809,0.525,0.596
HCC-366,0.839,0.872,0.915,0.923,0.832,–,–,–,–,–,0.205,0.317,0.243,0.286,0.265,0.339,0.343,0.362,0.269,0.284
IA-LM,1.21,1.17,1.24,0.916,0.691,–,–,–,–,–,–,–,–,–,–,–,–,–,–,–
NCI-H520,0.983,0.853,0.878,0.842,0.718,0.206,0.218,0.222,0.253,0.209,–,–,–,–,0.627,0.642,0.577,0.687,0.68,–
NCI-H661,1.04,0.943,1.03,1.11,1.07,0.912,0.914,0.869,0.934,0.978,–,–,–,–,0.55,0.543,0.63,0.601,0.532,–
NCI-H1299,1.1,1.05,1.09,1.09,1.1,–,–,–,–,–,–,–,–,–,–,–,–,–,–,–
NCI-H1563,0.922,1.03,0.952,0.914,0.85,0.552,0.53,0.515,0.518,0.473,–,–,–,–,–,–,–,–,–,–
NCI-H1623,0.858,0.769,0.888,0.819,0.9,0.504,0.577,0.581,0.521,0.436,–,–,–,–,–,–,–,–,–,–
NCI-H1648,–,–,–,–,–,–,–,–,–,–,0.643,0.601,0.638,0.625,0.426,0.461,0.512,0.541,0.506,0.676
NCI-H1650,1.38,0.919,1.55,0.787,1.02,0.198,0.216,0.161,0.21,0.154,–,–,–,–,0.618,0.409,0.461,0.483,0.364,–
NCI-H1703,0.37,0.381,0.318,0.336,0.391,–,–,–,–,–,0.129,–,0.132,0.134,–,–,–,–,–,0.159
NCI-H2009,1.2,1.18,1.32,1.23,1.17,1.04,0.998,0.17,1.07,1.03,–,–,–,–,0.263,0.252,0.286,0.282,0.275,–
NCI-H2023,0.933,0.857,1.09,0.907,0.708,0.811,0.604,0.796,0.731,0.497,–,–,–,–,0.498,0.507,–,0.556,0.49,–
NCI-H2228,0.84,0.993,1.04,0.76,0.971,0.153,0.176,0.116,0.143,0.116,–,–,–,–,0.511,0.386,0.561,0.64,0.28,–
SK-LU-1,0.824,0.867,0.991,0.884,0.749,0.202,0.204,0.156,0.196,0.217,–,–,–,–,0.453,0.344,0.562,0.567,0.458,–
SK-MES-1,1.07,0.863,1.11,0.993,0.836,0.788,0.506,0.758,0.594,0.388,–,–,–,–,0.593,0.464,0.304,0.405,0.357,–
SW 1573,0.792,0.949,0.994,0.892,0.963,0.383,0.227,0.415,0.24,0.18,–,–,–,–,0.59,0.568,–,0.598,0.615,–
